# Results: US11952363B2, “Piperazine compounds for the treatment of autoimmune disease” (Hoffmann-La Roche Inc., priority 2018, dated 2024)
# Assays:
# hERG = target: T1, hERG (Homo sapiens, UniProt Q12809); experiment: hERG channel inhibition assay (patch-clamp, CHO hERG cells); type: cell-based
# T1 construct: expressed in transfected cells
# Protocol: The hERG K^+ channels were cloned in humans and stably expressed in a CHO (Chinese hamster ovary) cell line. CHOhERG cells were used for patch-clamp (voltage-clamp, whole-cell) experiments. Cells were stimulated by a voltage pattern to activate hERG channels and conduct I KhERG currents (rapid delayed outward rectifier potassium current of the hERG channel). After the cells were stabilized for a few minutes, the amplitude and kinetics of I KhERG were recorded at a stimulation frequency of 0.1 Hz (6 bpm). Thereafter, the test compound was added to the preparation at increasing concentrations. For each concentration, an attempt was made to reach a steady-state effect, usually, this was achieved within 3-10 min at which time the next highest concentration was applied. The amplitude and kinetics of IKhERG are recorded in each concentration of the drug which were compared to the control values (taken as 100%). […]
# human TLR8 = target: T2, human TLR8 (Homo sapiens, UniProt Q9NR97); experiment: HEK293-Blue-hTLR-8 cells assay (SEAP reporter, R848 stimulation); type: cell-based; settings: HEK293-Blue-hTLR8 cells, R848 ligand, 20 hrs incubation; read-out: HEK/hTLR8 IC50
# T2 sequence (Q9NR97 27-1041): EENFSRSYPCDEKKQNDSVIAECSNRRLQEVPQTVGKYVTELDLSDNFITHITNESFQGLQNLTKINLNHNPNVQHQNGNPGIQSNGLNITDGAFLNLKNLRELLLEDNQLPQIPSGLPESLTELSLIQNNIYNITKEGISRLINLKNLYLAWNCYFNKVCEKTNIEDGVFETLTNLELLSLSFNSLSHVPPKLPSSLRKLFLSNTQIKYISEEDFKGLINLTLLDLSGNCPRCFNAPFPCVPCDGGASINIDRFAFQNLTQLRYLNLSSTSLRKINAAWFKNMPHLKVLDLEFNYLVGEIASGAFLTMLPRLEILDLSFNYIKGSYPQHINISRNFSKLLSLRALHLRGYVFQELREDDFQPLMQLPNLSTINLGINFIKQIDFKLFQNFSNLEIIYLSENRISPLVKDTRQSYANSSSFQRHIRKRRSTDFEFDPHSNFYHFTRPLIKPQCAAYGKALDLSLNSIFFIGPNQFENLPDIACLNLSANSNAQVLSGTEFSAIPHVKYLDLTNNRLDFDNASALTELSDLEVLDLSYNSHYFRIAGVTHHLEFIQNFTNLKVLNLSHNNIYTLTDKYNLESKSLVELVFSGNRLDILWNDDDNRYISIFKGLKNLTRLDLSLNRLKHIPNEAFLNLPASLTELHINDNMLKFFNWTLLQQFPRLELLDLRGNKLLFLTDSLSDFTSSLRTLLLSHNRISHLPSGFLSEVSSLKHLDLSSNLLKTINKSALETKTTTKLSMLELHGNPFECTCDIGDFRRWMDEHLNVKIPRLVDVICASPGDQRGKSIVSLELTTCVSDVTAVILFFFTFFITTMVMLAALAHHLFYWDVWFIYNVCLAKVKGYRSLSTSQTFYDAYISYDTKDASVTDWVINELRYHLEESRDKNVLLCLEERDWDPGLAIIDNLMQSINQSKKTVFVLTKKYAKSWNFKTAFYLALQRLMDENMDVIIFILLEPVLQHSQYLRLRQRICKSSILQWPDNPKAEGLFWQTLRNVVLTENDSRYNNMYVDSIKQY
# Protocol: The following tests were carried out in order to determine the activity of the compounds of formula (I) in HEK293-Blue-hTLR-7/8/9 cells assay.
# A stable HEK293-Blue-hTLR-8 cell line was purchased from InvivoGen (Cat.#: hkb-htlr8, San Diego, California, USA). These cells were originally designed for studying the stimulation of human TLR8 by monitoring the activation of NF-κB. A SEAP (secreted embryonic alkaline phosphatase) reporter gene was placed under the control of the IFN-β minimal promoter fused to five NF-κB and AP-1-binding sites. The SEAP was induced by activating NF-κB and. AP-1 via stimulating HEK-Blue hTLR8 cells with TLR8 ligands. Therefore the reporter expression was declined by TLR8 antagonist under the stimulation of a ligand, such as R848, for incubation of 20 hrs. The cell culture supernatant SEAP reporter activity was determined using QUANTI-Blue™ kit (Cat.#: rep-qb1, Invivogen, San Diego, Ca, USA) at a wavelength of 640 nm, a detection medium that tunas purple or blue in the presence of alkaline phosphatase.
# HEK293-Blue-hTLR8 cells were incubated at a density of 250,000˜450,000 cells/mL in a volume of 170 μL in a 96-well plate in Dulbecco's Modified Eagle's medium (DMEM) containing 4.5 g/L glucose, 50 U/mL penicillin, […], […], 2 mM L-glutamine, 10% (v/v) heat-inactivated fetal bovine serum with addition of 20 μL test compound in a serial dilution in the presence of final DMSO at 1% and 10 μL of 60 uM R848 in above DMEM, perform incubation under 37° C. in a CO2 incubator for 20 hrs. Then 20 μL of the supernatant from each well was incubated with […] Quanti-blue substrate solution at 37° C. for 2 hrs and the absorbance was read at 620-655 nm using a spectrophotometer. The signalling pathway that TLR8 activation leads to downstream NF-κB activation has been widely accepted, and therefore similar reporter assay was modified for evaluating TLR8 antagonist.
# [1] = safety ratio, >30 suggests sufficient window
# T1 sequence (Q12809 whole entry): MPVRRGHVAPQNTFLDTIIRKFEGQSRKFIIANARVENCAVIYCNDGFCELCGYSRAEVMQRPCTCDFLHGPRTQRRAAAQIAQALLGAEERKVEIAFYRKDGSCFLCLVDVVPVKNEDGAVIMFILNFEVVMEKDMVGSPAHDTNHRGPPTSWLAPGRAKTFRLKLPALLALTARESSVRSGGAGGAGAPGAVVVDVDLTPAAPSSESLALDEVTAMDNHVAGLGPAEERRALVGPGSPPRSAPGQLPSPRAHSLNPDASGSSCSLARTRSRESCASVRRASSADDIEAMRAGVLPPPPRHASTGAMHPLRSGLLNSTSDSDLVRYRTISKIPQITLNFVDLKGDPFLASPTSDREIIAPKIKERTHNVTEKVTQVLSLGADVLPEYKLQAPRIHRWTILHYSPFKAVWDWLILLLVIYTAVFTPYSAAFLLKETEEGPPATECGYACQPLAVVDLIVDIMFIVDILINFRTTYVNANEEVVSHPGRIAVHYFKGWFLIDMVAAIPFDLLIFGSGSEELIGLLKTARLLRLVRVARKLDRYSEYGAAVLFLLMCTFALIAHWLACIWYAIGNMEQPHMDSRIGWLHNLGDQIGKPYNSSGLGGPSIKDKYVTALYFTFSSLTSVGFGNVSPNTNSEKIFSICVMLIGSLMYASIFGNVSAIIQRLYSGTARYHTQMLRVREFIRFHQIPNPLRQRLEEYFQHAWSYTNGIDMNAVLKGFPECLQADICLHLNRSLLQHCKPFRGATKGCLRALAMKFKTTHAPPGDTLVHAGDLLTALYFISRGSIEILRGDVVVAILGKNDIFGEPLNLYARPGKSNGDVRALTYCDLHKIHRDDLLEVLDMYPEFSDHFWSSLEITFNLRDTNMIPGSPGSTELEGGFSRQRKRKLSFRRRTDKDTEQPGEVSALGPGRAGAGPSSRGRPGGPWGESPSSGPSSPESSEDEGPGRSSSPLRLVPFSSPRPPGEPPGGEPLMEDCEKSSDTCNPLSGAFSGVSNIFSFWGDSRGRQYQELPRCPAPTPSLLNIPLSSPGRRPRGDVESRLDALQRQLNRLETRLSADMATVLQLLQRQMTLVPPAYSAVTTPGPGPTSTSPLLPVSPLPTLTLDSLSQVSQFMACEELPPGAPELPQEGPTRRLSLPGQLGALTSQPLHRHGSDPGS
smiles,measurement,setting,value
"C[C@@H]1CN(c2ccc(C#N)c3ncccc23)C[C@H](C)N1Cc1ccc(N2CCN(C(=O)CN(C)C)CC2)cn1 [Example 11, 5-[(3S,5R)-4-[[5-[4-[2-(Dimethylamino)acetyl]piperazin-1-yl]-2-pyridyl]methyl]-3,5-dimethyl-piperazin-1-yl]quinoline-8-carbonitrile]",IC50,"hERG; CHO hERG cells, whole-cell patch-clamp",> 20 µM
same,IC20,"hERG; human, CHO cells stably expressing hERG, CHO hERG cells, whole-cell patch-clamp",> 10 µM
same,hERG IC20/TLR7 IC50,hERG; [1],>198
same,hERG IC20/TLR8 IC50,hERG; [1],>289
same,hERG IC20/TLR9 IC50,hERG; [1],>104
same,IC50,human TLR8,0.035 µM
